Converted amounts (≈) assume the structure as drawn. Where two headings read alike, the source gives them in different places.
Assays:
HSV-1 TK^− B2006 = experiment: method of reducing viral plates (plaque reduction); format: cell-based; conditions: for Relative resistance (RR): IC50 of HSV-1 TK^− B2006 / IC50 of HSV-1 (F)
Procedure: (§1) According to the present invention, a method of reducing the viral plates comprises the following process: Vero cells monolayers developed in 24 wells microplates are infected with 50 UFP/well of virus in the absence or presence of different compounds concentrations. Each dilution is tested by duplicate. After 1 hour adsorption at 37° C., the inoculum is removed and covered by plating medium (culture media with methylcellulose at a final concentration of 0.7%). Inoculation is continued till the viral plates' appearance, which are then counted after fitting and dying the cells with violet crystal. Moreover, according to the present invention, 50% inhibitory concentration (IC50) means the compound concentration required for reducing about 50% the number of viral plates.
(§2) Thus, preliminary tests of the cloned variants of passages with greater selection pressure of 1C3 (17, 20 and 21) with pyrimidine and purine analogous as aciclovir (ACV) and brivudin (BVDU) would disclose alterations at viral TK level as it is shown in Table VIII, a characteristic that, up to date, has not been published in previous art documents. The TK gene is not essential for the in vitro viral replication, though in vivo, is involved in the virulence, pathogenicity and reactivation since latency (Andrei G et al., 2005). […] Therefore, the selection pressure to which the viruses were subjected could have selected mutations in the TK gene and in additional superimposing genes generating strains with less in vivo pathogenic action (Jacobson J et al., 1993).

HSV-1 (F) = experiment: method of reducing viral plates (plaque reduction); format: cell-based
Procedure: as §1
(§3) Compounds were present during the viral adsorption (1h, 37° C.) and after the infection. When a cytopathic action (ACP) between 80-90%, during a period among 24 to 72 hours p.i., was observed, cells were lysed with freeze-thawing cycles. In order to remove cellular moieties, the cellular lisate was centrifuged during 10 min at 1000 rpm, keeping the supernatant at −70° C. The supernatant was used to infect a new monolayer in the presence of SAMMA or PRO2000. […] The title and the IC50 of each viral passage was determined by viral plates reduction test (or after 2-3 passages) against SAMMA or PRO20000.

1C3 syn 17-3 = experiment: method of reducing viral plates (plaque reduction); format: cell-based, HSV-1; conditions: for IC50: strain 1C3 syn 17-3; for Relative resistance (RR): IC50 of clone 1C3 syn 17-3 / IC50 of HSV-1 (F)
Procedure: as §1, §2

1C3 syn 20-1 = experiment: method of reducing viral plates (plaque reduction); format: cell-based, HSV-1; conditions: for IC50: strain 1C3 syn 20-1; for Relative resistance (RR): IC50 of clone 1C3 syn 20-1 / IC50 of HSV-1 (F)
Procedure: as §1, §2

1C3 syn 21-3 = experiment: method of reducing viral plates (plaque reduction); format: cell-based, HSV-1; conditions: for IC50: strain 1C3 syn 21-3; for Relative resistance (RR): IC50 of clone 1C3 syn 21-3 / IC50 of HSV-1 (F)
Procedure: as §1, §2

1C3 syn 17-1 = experiment: method of reducing viral plates (plaque reduction); format: cell-based, HSV-1; conditions: for IC50: strain 1C3 syn 17-1; for Relative resistance (RR): IC50 of clone 1C3 syn 17-1 / IC50 of HSV-1 (F)
Procedure: as §1, §2

1C3 syn 20-3 = experiment: method of reducing viral plates (plaque reduction); format: cell-based, HSV-1; conditions: for IC50: strain 1C3 syn 20-3; for Relative resistance (RR): IC50 of clone 1C3 syn 20-3 / IC50 of HSV-1 (F)
Procedure: as §1, §2

1C3 syn 21-1 = experiment: method of reducing viral plates (plaque reduction); format: cell-based, HSV-1; conditions: for IC50: strain 1C3 syn 21-1; for Relative resistance (RR): IC50 of clone 1C3 syn 21-1 / IC50 of HSV-1 (F)
Procedure: as §1, §2

1C3 syn 20-2 = experiment: method of reducing viral plates (plaque reduction); format: cell-based, HSV-1; conditions: for Relative resistance (RR): IC50 of clone 1C3 syn 20-2 / IC50 of HSV-1 (F)
Procedure: as §1, §2

1C3 syn 17-2 = experiment: method of reducing viral plates (plaque reduction); format: cell-based, HSV-1; conditions: for IC50: strain 1C3 syn 17-2; for Relative resistance (RR): IC50 of clone 1C3 syn 17-2 / IC50 of HSV-1 (F)
Procedure: as §1, §2

1C3 syn 21-2 = experiment: method of reducing viral plates (plaque reduction); format: cell-based, HSV-1; conditions: for IC50: strain 1C3 syn 21-2; for Relative resistance (RR): IC50 of clone 1C3 syn 21-2 / IC50 of HSV-1 (F)
Procedure: as §1, §2

1C3-syn-14-1 = experiment: method of reducing viral plates (plaque reduction); format: cell-based, HSV-1; conditions: for Relative resistance (RR): IC50 of clone 1C3 syn 14-1 / IC50 of HSV-1 (F)
Procedure: as §1, §3

1C3-syn-13-8 = experiment: method of reducing viral plates (plaque reduction); format: cell-based, HSV-1
Procedure: as §1, §3

HSV-2 (G) = format: cell-based; conditions: virus HSV-2 (G)
Procedure: as §1, §3

Pro2000-13-10 = experiment: method of reducing viral plates (plaque reduction); format: cell-based, HSV-2
Procedure: as §1, §3
(§4) By the end of a year, the corresponding virus to passages 13 and 16 in the presence of PRO2000 and SAMMA, respectively, were cloned in monolayers of Vero cells developed in 6 wells plates. The cellular monolayers were infected with a limited dilution of virus and were coated with maintenance media (MM) containing agarose 0.6%. After 2 days incubation, cells were dyed with neutral red and clones were stippled. For clone amplification, Vero cells with each selected clone were infected; after 1 hour adsorption at 37° C., the innoculum was discarded and was covered with MM, subjected to incubation 24-48 h at 37° C. till ACP development was observed.

Pro2000-syn13-1 = experiment: method of reducing viral plates (plaque reduction); format: cell-based, HSV-2
Procedure: as §1, §3, §4

SAMMA-15-3 = experiment: method of reducing viral plates (plaque reduction); format: cell-based, HSV-2
Procedure: as §1, §3, §4

Pro2000-13-5 = experiment: method of reducing viral plates (plaque reduction); format: cell-based, HSV-2
Procedure: as §1, §3, §4

SAMMA-15-7 = experiment: method of reducing viral plates (plaque reduction); format: cell-based, HSV-2
Procedure: as §1, §3, §4

Pro2000-syn13-9 = experiment: method of reducing viral plates (plaque reduction); format: cell-based, HSV-2
Procedure: as §1, §3, §4

[1] = Human alphaherpesvirus 1, read-out: IC50

In the case of `O=C(O)P(=O)(O)O` [Foscarnet, foscarnet], the IC50 (HSV-1 TK^− B2006; Human alphaherpesvirus 1) is reported as 35.1 µg/mL (≈ 279 µM), the “Relative resistance (RR)” value (HSV-1 TK^− B2006) is reported as 5.0 and the IC50 (HSV-1 (F); Human alphaherpesvirus 1, Table VIII, strain HSV-1 (F), read-out: IC50) is reported as 6.12 µg/mL (≈ 48.6 µM). The IC50 (1C3 syn 17-3; [1]) was 17.6 µg/mL (≈ 140 µM), the “Relative resistance (RR)” value (1C3 syn 17-3) was 2.9 and the IC50 (1C3 syn 20-1; [1]) was 12.5 µg/mL (≈ 99.2 µM). The “Relative resistance (RR)” value (1C3 syn 20-1) was 2.0, the IC50 (1C3 syn 21-3; [1]) was 12.5 µg/mL (≈ 99.2 µM) and the “Relative resistance (RR)” value (1C3 syn 21-3) was 2.0. The IC50 (1C3 syn 17-1; [1]) was 17.6 µg/mL (≈ 140 µM), the “Relative resistance (RR)” value (1C3 syn 17-1) was 2.9 and the IC50 (1C3 syn 20-3; [1]) was 17.6 µg/mL (≈ 140 µM). The “Relative resistance (RR)” value (1C3 syn 20-3) was 2.9, the IC50 (1C3 syn 21-1; [1]) was 8.82 µg/mL (≈ 70 µM) and the “Relative resistance (RR)” value (1C3 syn 21-1) was 1.4. The IC50 (1C3 syn 20-2; Human alphaherpesvirus 1) was 12.5 µg/mL (≈ 99.2 µM), the “Relative resistance (RR)” value (1C3 syn 20-2) was 2.0 and the IC50 (1C3 syn 17-2; [1]) was 12.5 µg/mL (≈ 99.2 µM). For the same molecule, the “Relative resistance (RR)” value (1C3 syn 17-2) was 2.0, the IC50 (1C3 syn 21-2; [1]) was 17.6 µg/mL (≈ 140 µM) and the “Relative resistance (RR)” value (1C3 syn 21-2) was 2.9. The IC50 (1C3-syn-14-1; Human alphaherpesvirus 1, Table VIII, strain 1C3 syn 14-1, read-out: IC50) was 3.12 µg/mL (≈ 24.8 µM) and the “Relative resistance (RR)” value (1C3-syn-14-1; Table VIII) was less than 1.0.
In the case of Heparine, the “Relative resistance (RR)” value (HSV-1 TK^− B2006) is reported as 3.0, the IC50 (HSV-1 TK^− B2006; strain HSV-1 TK^− B2006) is reported as 3.5 µg/mL and the IC50 (HSV-1 (F); Table IV, virus HSV-1 (F)) is reported as 1.4 µg/mL. For the same molecule, the IC50 (HSV-1 (F); Table VIII, strain HSV-1 (F)) was 1.25 µg/mL, the “Relative resistance (RR)” value (1C3 syn 17-3) was 5.7 and the IC50 (1C3 syn 17-3) was 7.1 µg/mL. For the same molecule, the “Relative resistance (RR)” value (1C3 syn 20-1) was greater than 16.0, the IC50 (1C3 syn 20-1) was greater than 20 µg/mL and the “Relative resistance (RR)” value (1C3 syn 21-3) was 5.7. For the same molecule, the IC50 (1C3 syn 21-3) was 7.1 µg/mL, the “Relative resistance (RR)” value (1C3 syn 17-1) was 8.0 and the IC50 (1C3 syn 17-1) was 10.0 µg/mL. The “Relative resistance (RR)” value (1C3 syn 20-3) was greater than 16.0, the IC50 (1C3 syn 20-3) was greater than 20 µg/mL and the “Relative resistance (RR)” value (1C3 syn 21-1) was 8.0. For the same molecule, the IC50 (1C3 syn 21-1) was 10.0 µg/mL, the “Relative resistance (RR)” value (1C3 syn 20-2) was greater than 16.0 and the IC50 (1C3 syn 20-2; strain 1C3 syn 20-2) was greater than 20 µg/mL. The “Relative resistance (RR)” value (1C3 syn 17-2) was greater than 16.0, the IC50 (1C3 syn 17-2) was greater than 20 µg/mL and the “Relative resistance (RR)” value (1C3 syn 21-2) was 8.0. For the same molecule, the IC50 (1C3 syn 21-2) was 10.0 µg/mL, the “RR (relative resistance)” value (1C3-syn-14-1; Table IV, IC50 of variant 1C3-syn-14-1 / IC50 for HSV-1 (F)) was 2.9 and the IC50 (1C3-syn-14-1; Table IV, virus 1C3-syn-14-1) was 4.1 µg/mL. The “Relative resistance (RR)” value (1C3-syn-14-1; Table VIII) was 5.7, the IC50 (1C3-syn-14-1; Table VIII, strain 1C3 syn 14-1) was 7.1 µg/mL and the “susceptibility of variant to drug (in words)” value (“susceptibility of variant” for short) (1C3-syn-14-1; variant 1C3-syn-14-1) was “resistant”. For the same molecule, the “RR (relative resistance)” value (1C3-syn-13-8; IC50 of variant 1C3-syn-13-8 / IC50 for HSV-1 (F)) was 0.9, the IC50 (1C3-syn-13-8; Table IV, virus 1C3-syn-13-8) was 1.2 µg/mL and the “susceptibility of variant” value (1C3-syn-13-8; variant 1C3-syn-13-8) was “sensitive”. The IC50 (HSV-2 (G)) was 1.8 µg/mL, the “RR (relative resistance)” value (Pro2000-13-10; IC50 of variant Pro2000-13-10 / IC50 for HSV-2 (G)) was 1.4 and the IC50 (Pro2000-13-10; virus Pro2000-13-10) was 2.6 µg/mL. For the same molecule, the “RR (relative resistance)” value (Pro2000-syn13-1; IC50 of variant Pro2000-syn13-1 / IC50 for HSV-2 (G)) was 4.3, the IC50 (Pro2000-syn13-1; virus Pro2000-syn13-1) was 7.8 µg/mL and the “RR (relative resistance)” value (SAMMA-15-3; IC50 of variant SAMMA-15-3 / IC50 for HSV-2 (G)) was 4.6. The “susceptibility of variant” value (SAMMA-15-3; variant SAMMA-15-3) was “resistant”, the IC50 (SAMMA-15-3; virus SAMMA-15-3) was 8.4 µg/mL and the “RR (relative resistance)” value (Pro2000-13-5; IC50 of variant Pro2000-13-5 / IC50 for HSV-2 (G)) was 1.2. For the same molecule, the IC50 (Pro2000-13-5; virus Pro2000-13-5) was 2.2 µg/mL, the “RR (relative resistance)” value (SAMMA-15-7; IC50 of variant SAMMA-15-7 / IC50 for HSV-2 (G)) was 6.7 and the IC50 (SAMMA-15-7; virus SAMMA-15-7) was 12.0 µg/mL. The “RR (relative resistance)” value (Pro2000-syn13-9; IC50 of variant Pro2000-syn13-9 / IC50 for HSV-2 (G)) was 10.8, the “susceptibility of variant” value (Pro2000-syn13-9; variant Pro2000-syn-13-9) was “resistant” and the IC50 (Pro2000-syn13-9; virus Pro2000-syn13-9) was 19.5 µg/mL.
